# Measurements as given in US9096615B2, “Bridged bicyclic amino thiazine dioxide compounds as inhibitors of beta-secretase and methods of use thereof” (AMGEN INC., priority 2013, dated 2015).
# Tests used:
# [1] = target: BACE1 (Homo sapiens, UniProt P56817); experiment: In vitro enzymatic BACE FRET assay; format: biochemical; conditions: average IC50; read-out: BACE1 Enzyme assay IC50
# Procedure, shortened: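 BACE (0.2 nM) pre-incubated 1 h with serially diluted inhibitor in 0.05 M acetate pH 4.2, 10% DMSO, 100 uM genapol; 50 nM FRET peptide substrate added, 1 h incubation. Stopped with Tris to neutral pH; fluorescence read (ex 488, […]).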
# [2] = system: Aβ40 in conditioned medium of cells stably expressing Amyloid Precursor Protein (APP); experiment: In vitro BACE cell-based assay (HEK cell assay, Aβ40 sandwich ELISA); conditions: Homo sapiens, HEK293; average IC50; read-out: BACE1 cell assay IC50
# Procedure, shortened: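 APP-stable cells were cultured 24 h at 37 °C, then given compound as 10-point dose-response (top 100 μM or 10 μM; 0.1% DMSO final) for 24 h. Aβ40 in conditioned medium was measured by sandwich ELISA (pAb40 capture, biotinylated 6E10 detection, Eu time-resolved fluorescence). IC50 from percent inhibition versus concentration.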
# [3] = target: T1, human Bace2 protein (Homo sapiens, UniProt Q9Y5Z0); experiment: In vitro enzymatic BACE2 FRET assay; format: biochemical; conditions: average IC50; read-out: BACE2 Enzyme assay IC50
# T1 construct: V5 (C); 6-His (C)
# T1 sequence (Q9Y5Z0 63-518): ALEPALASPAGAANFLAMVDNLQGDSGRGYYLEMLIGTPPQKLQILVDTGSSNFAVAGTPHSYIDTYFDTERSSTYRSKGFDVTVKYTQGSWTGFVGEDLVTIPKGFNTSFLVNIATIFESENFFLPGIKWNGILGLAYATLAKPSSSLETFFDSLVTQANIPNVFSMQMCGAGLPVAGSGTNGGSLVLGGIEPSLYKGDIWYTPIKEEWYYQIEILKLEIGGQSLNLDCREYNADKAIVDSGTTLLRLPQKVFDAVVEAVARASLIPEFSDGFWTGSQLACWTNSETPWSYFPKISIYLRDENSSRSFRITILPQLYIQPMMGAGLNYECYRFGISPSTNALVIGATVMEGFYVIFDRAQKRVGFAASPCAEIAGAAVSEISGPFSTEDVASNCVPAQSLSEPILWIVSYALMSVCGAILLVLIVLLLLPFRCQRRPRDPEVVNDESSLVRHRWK
# Procedure, shortened: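 Human Bace2 with C-terminal V5/6-His tag (0.2 nM) pre-incubated 1 h with inhibitor in 0.05 M acetate pH 4.2, 10% DMSO, 100 uM genapol; reaction started with 50 nM FRET peptide substrate, run 1 h. Stopped with Tris to neutral pH; fluorescence increase from substrate cleavage measured.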
# [4] = target: T2, Cathepsin D (Cat D) (Homo sapiens, UniProt P07339); experiment: In vitro enzymatic Cathepsin D (Cat D) FRET assay; format: biochemical; conditions: average IC50; first procedure; read-out: CatD IC50
# T2 construct: made in house; host or cells: CHO cells
# Procedure, shortened: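 Recombinant human Cat D expressed in CHO cells, 9 nM, pre-incubated 1 h with inhibitor in 0.05 M citrate pH 3.5, 10% DMSO, 5 mM CHAPS. Reaction started with 20 nM FRET peptide substrate, run 1 h, stopped with Tris to neutral pH; fluorescence read at ex 500/em 580 nm.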
# [5] = system: rat; conditions: higher compound dose given for three months; cited from earlier work
# [6] = system: Aβ in lumbar CSF; conditions: cited from earlier work
# Sequence of BACE1 (P56817 46-501, species assumed): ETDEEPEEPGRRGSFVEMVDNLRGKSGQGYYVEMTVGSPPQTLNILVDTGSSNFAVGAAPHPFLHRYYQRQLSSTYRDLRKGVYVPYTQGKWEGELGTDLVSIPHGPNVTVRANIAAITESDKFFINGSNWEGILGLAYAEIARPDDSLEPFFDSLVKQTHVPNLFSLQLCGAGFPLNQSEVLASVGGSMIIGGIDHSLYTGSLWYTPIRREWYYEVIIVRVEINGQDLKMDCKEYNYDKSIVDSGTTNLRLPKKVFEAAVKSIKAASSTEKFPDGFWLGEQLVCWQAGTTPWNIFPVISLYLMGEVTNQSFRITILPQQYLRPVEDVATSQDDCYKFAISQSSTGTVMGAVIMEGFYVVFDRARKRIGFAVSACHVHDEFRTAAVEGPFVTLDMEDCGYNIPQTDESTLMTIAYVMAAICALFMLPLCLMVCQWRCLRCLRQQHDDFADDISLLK
# T2 sequence (P07339 65-412, species assumed): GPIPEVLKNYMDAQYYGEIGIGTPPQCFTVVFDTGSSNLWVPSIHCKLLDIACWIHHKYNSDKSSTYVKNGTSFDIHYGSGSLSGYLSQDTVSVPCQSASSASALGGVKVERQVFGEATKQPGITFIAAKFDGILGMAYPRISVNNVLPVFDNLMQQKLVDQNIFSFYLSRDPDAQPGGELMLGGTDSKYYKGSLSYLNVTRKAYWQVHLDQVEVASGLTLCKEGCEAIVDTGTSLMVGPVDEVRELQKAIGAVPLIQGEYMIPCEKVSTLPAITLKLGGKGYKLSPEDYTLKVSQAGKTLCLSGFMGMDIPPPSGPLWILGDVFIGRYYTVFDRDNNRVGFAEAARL
IC50 [1],IC50 [2],IC50 [3],IC50 [4],Compound,rat toxicology finding in the eye [5],Aβ reductions in lumbar CSF ([6]; after oral dosing of 30 or 90 mg),safety and tolerability ([6]; healthy volunteers)
7 nM,36 nM,2 nM,174000 nM,"C[C@]1(c2cc(Nc3ncnc4cc(Br)cnc34)ccc2F)N=C(N)[C@@]2(CF)CC[C@@H]1S2(=O)=O [Example 47, N-(3-((1S,2R,5R)-4-amino-5-(fluoromethyl)-2-methyl-8,8-dioxido-8-thia-3-azabicyclo[3.2.1]oct-3-en-2-yl)-4-fluorophenyl)-7-bromopyrido[3,2-d]pyrimidin-4-amine]",–,–,–
61 nM,44 nM,7000 nM,348000 nM,"CC#CCOc1ccc(C(=O)Nc2ccc(F)c([C@@]3(C)N=C(N)[C@]4(C)CC[C@H]3S4(=O)=O)c2)c(F)c1 [Example 129, N-(3-((1R,2R,5S)-4-amino-2,5-dimethyl-8,8-dioxido-8-thia-3-azabicyclo[3.2.1]oct-3-en-2-yl)-4-fluorophenyl)-4-(2-butyn-1-yloxy)-2-fluorobenzamide]",–,–,–
–,–,–,–,"C[C@@]1(c2cc(-c3cncnc3)c(F)cc2F)CCSC(N)=N1 [LY2811376, (S)-4-(2,4-difluoro-5-pyrimidin-5-yl-phenyl)-4-methyl-5,6-dihydro-4H-[1,3]thiazin-2-ylamine]",damaged the pigment epithelium of the rat's eye,Prominent and long-lasting Aβ reductions,safe and well tolerated
